One data set deals with GSK3β (Homo sapiens, UniProt P49841). Description: Inhibitory activity against GSK3β (TPK1), 33P-ATP phosphorylation of GS1 peptide. In kind it is biochemical. The following applies: TPK1 = GSK3β (b5); table 4. As for the experimental part:
Two different protocols can be used.
In a first protocol: 7.5 μM of prephosphorylated GS1 peptide and 10 μM ATP (containing 300,000 cpm of 33P-ATP) were incubated in 25 mM Tris-HCl, pH 7.5, 0.6 mM DTT, 6 mM MgCl2, 0.6 mM EGTA, 0.05 mg/ml BSA buffer for 1 hour at room temperature in the presence of GSK3β (total reaction volume: 100 microliters).
In a second protocol: 4.1 μM of prephosphorylated GS1 peptide and 42 μM ATP (containing 260,000 cpm 33P-ATP) were incubated in 80 mM Mes-NaOH, pH 6.5, 1 mM Mg acetate, 0.5 mM EGTA, 5 mM 2-mercaptoethanol, 0.02% Tween 20, 10% glycerol buffer for 2 hours at room temperature in the presence of GSK3β.
Inhibitors were solubilized in DMSO (final solvent concentration in the reaction medium, 1%).
The reaction was stopped with 100 microliters of a solution made of 25 g polyphosphoric acid (85% P2O5), 126 ml 85% H3PO4, H2O to 500 ml and then diluted to 1:100 before use. An aliquot of the reaction mixture was then transferred to Whatman P81 cation exchange filters and rinsed with the solution described above. Incorporated 33P radioactivity was determined by liquid scintillation spectrometry.
The phosphorylated GS-1 peptide had the following sequence: NH2-[…](P)EDEE-COOH.
The GSK3β inhibitory activity of the compounds of the present invention are expressed in IC50, and as an illustration the range of IC50's of the compounds in table 1 is between 4 nanomolar to 2 micromolar concentrations, of the compounds in table 2 is between 30 nanomolar to 2 micromolar concentrations and of the compounds in table three is between 1 nanomolar to 2 micromolar.

Another data set deals with cdk5/p25 (Homo sapiens, UniProt Q00535). The experiment in a line: Inhibitory activity against cdk5/p25 (TPK2), 33P-ATP phosphorylation of Histone H1. The data set is classed as biochemical. The settings on record: TPK2 = cdk5/p25 (b7); table 4. The procedure: The following protocol may be used: 0.4 mg/ml Histone H1 and 10 μM ATP (containing 300,000 cpm of ^33P-ATP) were incubated in 50 mM Hepes, pH 7.2, 1 mM DTT, 1 mM MgCl2, 1 mM EGTA, 0.02% Tween 20 buffer for 1 hour at room temperature in the presence of cdk5/p25 (total reaction volume: 100 microliters). Inhibitors were solubilized in DMSO (final solvent concentration in the reaction medium, 1%). The reaction was stopped with 100 microliters of a solution of 25 g polyphosphoric acid (85% P2O5), 126 ml 85% H3PO4, H2O to 500 ml (diluted to 1:100 before use). An aliquot of the reaction mixture was then transferred to Whatman P81 cation exchange filters and rinsed with the solution described above. Incorporated ^33P radioactivity was determined by liquid scintillation spectrometry. The cdk5/p25 inhibitory activity of the compounds of the present invention are expressed as IC50 values. Typically, 3-fold serial dilutions of the inhibitor over at least a 1000-fold concentration range are used.
cdk5/p25, sequence (Q00535 whole entry, species assumed): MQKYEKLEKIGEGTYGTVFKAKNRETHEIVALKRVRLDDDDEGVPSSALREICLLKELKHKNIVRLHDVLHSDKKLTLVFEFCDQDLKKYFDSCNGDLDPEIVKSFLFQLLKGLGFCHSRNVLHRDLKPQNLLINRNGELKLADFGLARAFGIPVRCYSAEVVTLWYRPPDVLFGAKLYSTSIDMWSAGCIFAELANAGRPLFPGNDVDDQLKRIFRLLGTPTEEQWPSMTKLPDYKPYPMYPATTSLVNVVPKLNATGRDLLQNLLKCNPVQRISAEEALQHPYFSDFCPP
cdk5/p25, sequence (Q15078 99-307 partner limits assumed, species assumed): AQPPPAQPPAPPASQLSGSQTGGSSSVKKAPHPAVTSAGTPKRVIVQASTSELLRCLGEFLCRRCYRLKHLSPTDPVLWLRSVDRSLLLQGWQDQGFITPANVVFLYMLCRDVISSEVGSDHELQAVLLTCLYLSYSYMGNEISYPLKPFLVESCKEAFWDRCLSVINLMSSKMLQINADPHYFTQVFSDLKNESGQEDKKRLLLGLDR

GSK3β, sequence (P49841 whole entry, species assumed): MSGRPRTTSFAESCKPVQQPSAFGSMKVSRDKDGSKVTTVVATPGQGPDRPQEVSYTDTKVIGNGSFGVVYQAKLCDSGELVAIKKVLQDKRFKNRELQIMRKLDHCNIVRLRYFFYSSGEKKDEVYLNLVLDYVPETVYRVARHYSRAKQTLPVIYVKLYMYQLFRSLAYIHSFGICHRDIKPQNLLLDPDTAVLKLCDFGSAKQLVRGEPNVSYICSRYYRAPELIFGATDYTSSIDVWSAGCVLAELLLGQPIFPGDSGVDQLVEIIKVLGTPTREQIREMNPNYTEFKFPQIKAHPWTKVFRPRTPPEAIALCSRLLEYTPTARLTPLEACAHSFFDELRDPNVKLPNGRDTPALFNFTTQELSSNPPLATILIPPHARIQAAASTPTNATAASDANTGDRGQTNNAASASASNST

Take `O=C(CN1CCCn2c1nc(-c1ccncc1)c(F)c2=O)c1cccc(F)c1` [Table 1 Compound 37, 9-[2-Oxo-2-(3-fluorophenyl)-ethyl]-3-fluoro-2-(pyridin-4-yl)-6,7,8,9-tetrahydro-4H-pyrimido[1,2-a]pyrimidin-4-one]: the IC50 (as a rule, the point on the concentration scale where inhibition reaches its midpoint) against GSK3β stood at 4 nM; on cdk5/p25, 4600 nM.
The corresponding values for `CC1CCn2c(nc(-c3ccncc3)cc2=O)N1C[C@@H](O)c1ccccc1` (mixture of isomers) [Table 3 Compound 7, 9-[2(S)-Hydroxy-2-phenyl-ethyl]-8-methyl-2-(pyridin-4-yl)-6,7,8,9-tetrahydro-pyrimido[1,2-a]pyrimidin-4-one] are 4 nM and 344 nM.
The corresponding values for `O=c1cc(-c2ccncc2)nc2n1CC(F)(F)CN2C[C@@H](O)c1ccccc1` [Table 1 Compound 5, 9-(2(S)-Hydroxy-2-phenyl-ethyl)-7,7-difluoro-2-(pyridin4-yl)-6,7,8,9-tetrahydro-4H-pyrimido[1,2-a]pyrimidin-4-one] are 60 nM and 67 nM.
In the case of `CO[C@H](CN1CCCn2c1nc(-c1ccncc1)c(F)c2=O)c1ccccc1` [Table 1 Compound 45, 9-(2(S)-Methoxy-2-phenyl-ethyl)-3-fluoro-2-(pyridin-4-yl)-6,7,8,9-tetrahydro-4H-pyrimido[1,2-a]pyrimidin-4-one], the values for the half-inhibitory concentration (IC50) against GSK3β and against cdk5/p25 were 6 nM and over 1000 nM, respectively.
With `O=c1c(F)c(-c2ccncc2)nc2n1CCCN2C[C@@H](O)c1ccccc1` [Table 1 Compound 44, 9-(2(S)-Hydroxy-2-phenyl-ethyl)-3-fluoro-2-(pyridin-4-yl)-6,7,8,9-tetrahydro-4H-pyrimido[1,2-a]pyrimidin-4-one], the results for the IC50 against GSK3β and at cdk5/p25 were 6 nM and over 1000 nM, respectively.
For `CC1CCn2c(nc(-c3ccncc3)c(F)c2=O)N1CC(=O)c1ccccc1` (racemic) [Table 3 Compound 18, 3-Fluoro-8-methyl-9-(2-oxo-2-phenyl-ethyl)-2-(pyridin-4-yl)-6,7,8,9-tetrahydro-pyrimido[1,2-a]pyrimidin-4-one], the melting point (as a rule, the temperature, or range, at which the solid turns liquid) lay within 201 to 202 °C.
Regarding `O=C(CN1CCCn2c1nc(-c1ccncc1)c(Cl)c2=O)c1ccccc1` [Table 1 Compound 39, 9-(2-Oxo-2-phenyl-ethyl)-3-chloro-2-(pyridin-4-yl)-6,7,8,9-tetrahydro-4H-pyrimido[1,2-a]pyrimidin-4-one], the 50% inhibitory concentration (IC50) at GSK3β was found to be 4 nM; at cdk5/p25, 62 nM.
On to `CC1(C)CN(C[C@@H](O)c2ccccc2)c2nc(-c3ccncc3)c(F)c(=O)n2C1` [Table 1 Compound 12, 9-(2(S)-Hydroxy-2-phenyl-ethyl)-3-fluoro-7,7-dimethyl-2-(pyridin-4-yl)-6,7,8,9-tetrahydro-4H-pyrimido[1,2-a]pyrimidin-4-one], for which the IC50 is 11 nM against GSK3β and 334 nM against cdk5/p25.
The corresponding values for `Cc1ccc([C@H](O)CN2c3nc(-c4ccncc4)cc(=O)n3CCC2(C)C)cc1` [Table 3 Compound 32, 9-(2(S)-Hydroxy-2-p-tolyl-ethyl)-8,8-dimethyl-2-(pyridin-4-yl)-6,7,8,9-tetrahydro-pyrimido[1,2-a]pyrimidin-4-one] are 1 nM and over 1000 nM.
The corresponding values for `O=C(CN1CCCn2c1nc(-c1ccncc1)c(Br)c2=O)c1ccccc1` [Table 1 Compound 40, 9-(2-Oxo-2-phenyl-ethyl)-3-bromo-2-(pyridin-4-yl)-6,7,8,9-tetrahydro-4H-pyrimido[1,2-a]pyrimidin-4-one] are 5 nM and 77 nM.
In the case of `O=c1c(Cl)c(-c2ccncc2)nc2n1CCCN2C[C@@H](O)c1ccccc1` [Table 1 Compound 42, 9-(2(S)-Hydroxy-2-phenyl-ethyl)-3-chloro-2-(pyridin-4-yl)-6,7,8,9-tetrahydro-4H-pyrimido[1,2-a]pyrimidin-4-one], the results for the IC50 against GSK3β and at cdk5/p25 were 28 nM and 154 nM, respectively.

The values above are taken from US7214682B2, “Substituted 2-pyridinyl-6,7,8,9-tetrahydropyrimido{1,2-a}pyrimidin-4-one and 7-pyridinyl-2,3-dihydroimidazo{1,2-a}pyrimidin-5(1h)one derivatives” (Sanofi-aventis, priority 2001, dated 2007).
